The source of these data is US9359311B2, “Substituted aromatic oligomers” (NEUROSCIOS GMBH, priority 2011, dated 2016).

The target of assay [1] is T1, Human Aβ38, Aβ40 and Aβ42 (Homo sapiens, UniProt P05067).
T1 construct: from tissue; host or cells: CSF and left brain hemisphere (SDS fraction) of transgenic hAPPSL mice
In words: Human Aβ38, Aβ40 and Aβ42 in CSF of hAPPSL Tg mice after 90 days treatment (immunosorbent assay). Type of assay: in vivo, mouse. The following applies: twice daily i.p., hAPPSL Tg mice, p-FTAA 1 or 10 mg/kg/day, P9707_003 10 mg/kg/day. The protocol: (§1) Vehicle: Phosphate Buffered Saline (PBS; 6.7 mM PO4, 155 mM NaCl, pH=7.3-7.5) (BioWhittaker PBS from Lonza).
(§2) Test item (T.I.): p-FTAA and P9707_003 diluted in vehicle from stock solution in deionized water (10 mg/ml).
(§3) Tg hAPPSL: Transgenic hAPPSL mice over-expressing hAPP(751) under the control of the murine Thy-1 promoter with a C57BL/6xDBA background.
(§4) Human Aβ38, Aβ40 and Aβ42 were determined in homogenates of the left brain hemispheres and in CSF samples of all Tg animals by an immunosorbent assay from Mesoscale Discovery
(§5) 48 hAPP Tg mice plus 4 reserves allocated to 4 different treatment groups were treated with either vehicle only (control), p-FTAA or P9707_003. As an additional control, 12 nTg littermates of the hAPPSL mice (plus 1 reserve) were treated with vehicle only. Starting at 6.5 months of age, female hAPPSL mice were treated with vehicle only, p-FTAA (dosage: 1 or 10 mg/kg/day) or P9707_003 (dosage: 10 mg/kg/day) for 90 days. The Test Items (T.I.s) were administered in Vehicle. Compound and vehicle were administered twice daily i.p. for 90 days. Tg hAPPSL mice with a C57BL/6xDBA background and corresponding nTg littermates at an age of 6.5 months (±2 weeks) were randomly assigned to the treatment groups.
(§6) In the brain homogenate SDS fraction and in CSF of each Tg mouse, human Aβ38, Aβ40 and Aβ42 levels were measured with a Aβ-kit from Mesoscale Discovery. Aβ levels were evaluated in comparison to a peptide standard as pg/mg brain (wet weight) or pg/ml CSF.
Descriptive statistical analysis was performed on all evaluated parameters. All data were represented as mean±standard error of mean (SEM). Grubb's test was used to detect outliers. Normality distribution of the values was tested with Kolmogorov Smirnov normality distribution test. Group differences between all Tg groups were calculated by a parametric ANOVA followed by a Bonferroni post test.

For assay [2], the target named is T1, Human Aβ38, Aβ40 and Aβ42. In words: Human Aβ38, Aβ40 and Aβ42 in SDS brain homogenate fraction of hAPPSL Tg mice after 90 days treatment. Type of assay: in vivo, mouse. As to conditions: twice daily i.p., p-FTAA 1 or 10 mg/kg/day, P9707_003 10 mg/kg/day. The protocol:
as §1, §2, §3, §4
48 hAPP Tg mice plus 4 reserves allocated to 4 different treatment groups were treated with either vehicle only (control), p-FTAA or P9707_003. As an additional control, 12 nTg littermates of the hAPPSL mice (plus 1 reserve) were treated with vehicle only. Starting at 6.5 months of age, female hAPPSL mice were treated with vehicle only, p-FTAA (dosage: 1 or 10 mg/kg/day) or P9707_003 (dosage: 10 mg/kg/day) for 90 days. […]
as §6
Descriptive statistical analysis was performed on all evaluated parameters. […] Group differences between all Tg groups were calculated by a parametric ANOVA followed by a Bonferroni post test.

Assay [3] relates to PHF-tau doubly-phosphorylated at Thr231 and Ser235. In words: Phosphorylation of Tau in neurites crossing amyloid plaques, AT180 IHC, hAPPSL Tg mice. The assay is classed as in vivo, mouse. As for the experimental part: as §1
Test Item (T.I.): p-FTAA and P9707_003, diluted in vehicle from stock solution in deionized water (10 mg/ml).
as §3
as §5, with “(+2” for “(±2”
Histological evaluations were performed with six randomly chosen cryo-frozen brain hemispheres of treatment groups PBS Control, p-FTAA 1 mg/kg/day, p-FTAA 10 mg/kg/day, and P9707_003 10 mg/kg/day.
15 cryo-sections per level (altogether 5 levels), each 10 μm thick (Leica CM 3050S) were sagittally cut. Brain levels were chosen according to the morphology atlas “The Mouse Brain” from Paxinos and Franklin (2nd edition). The cutting of the five levels started with a random slice, then sampling was continued uniformly and systematically, always retaining 15 slices per level in series and discarding 100 μm in between the levels.
TAU phosphorylation was visualized immunohistochemically using the AT180 antibody. Clone AT180 recognizes PHF-tau doubly-phosphorylated at Thr231 and Ser235.
For determination of amyloid depositions 5 slices (1 from each level) per brain were stained and screened. From each slice five images were captured from 5 defined areas in the brain. The order of these positions reflect the time course of plaque deposition in the APPsl model, which starts in the frontal cortex (P11) at the age of 3 months and then spreads to the medial (P12) and dorsal cortex over age. At six months of age, plaques can be found in the medial cortex (P13), from then plaque load spreads into the hippocampal formation with hot spots in the subiculum (P14) and the dentate gyrus (P15) at the age of nine months.
Mosaic images for plaque load quantification including the whole cortex and hippocampus were recorded on a Zeiss AxioImager.Z1 microscope using high aperture lenses and an AxioVision 4.8 software driven AxioCam MRm (10× lens, 1× optocoupler). Plaques for AT180 quantifcation were imaged with a 20× lens. Detail images for qualitative figures are 40× image stacks collapsed to 2D by the extended depth of field function of AxioVision software.
Descriptive statistical analysis was performed on all evaluated parameters, Kolmogorov Smirnov test were performed to test normal distribution of data. Data in graphs are represented as mean±SEM.

Another assay deals with T2, biotinylated Aβ1-42 (Homo sapiens, UniProt P05067).
T2 construct: To assure monomerisation of biotinylated Aβ1-42 (Anaspec #23523-0.5) the peptide was thoroughly monomerised; purchased Anaspec 23523-0.5
T2 sequence (P05067 672-713 limits assumed): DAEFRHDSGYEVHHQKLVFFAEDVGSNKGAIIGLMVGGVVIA
As to the kind of experiment: Inhibition of Abeta oligomerisation (biotinylated Aβ1-42, neutravidin plate, streptavidin-HRP). Type of assay: biochemical. The following applies: inhibition of Aβ1-42 aggregation, approximately 12 nM Aβ1-42, PBS pH 7.4, 2% DMSO, 30 min RT.

For a further assay, the system named is prion. The following applies: Ref: JBC doi: 10.1074/jbc.M112.355958; cited from earlier work.

“Also recorded” adds a separate entry of the source.

T1 sequence (P05067 672-713 limits assumed): as above

In the case of `O=C(O)Cc1cc(-c2ccc(C(=O)O)s2)sc1-c1ccc(-c2sc(-c3ccc(C(=O)O)s3)cc2CC(=O)O)s1` [p-FTAA, reference compound], the “CSF Aβ levels” value in assay [1] is listed as “reduced”. Besides, the “aggregated Aβ38, Aβ40 and Aβ42 in SDS fraction of brain homogenate” value in assay [2] was “significant SDS soluble Aβ lowering effect; also recorded: reduced”. For the same compound, the AT180 load result is “significantly reduced” in assay [3] (1 mg p-FTAA treatment, position 4); “highly significant reduction” in assay [3] (10 mg p-FTAA treatment, positions 4 and 5). Also, the “AT180 IR in plaques of younger history of origin (hippocampal formation, subiculum, dentate gyrus)” value in assay [3] (90 days i.p., hAPPSL Tg mice) is listed as “drastically reduced”. Also, the IC50 against biotinylated Aβ1-42 is 5.01 µM. Besides, the anti-prion potential entry in the assay with prion is reported as “pronounced anti-prion potential”.

A word on the IC50: it is the point on the concentration scale where inhibition reaches its midpoint. Read a low IC50 as inhibition by little substance.
